Laboratory results: ChEMBL document CHEMBL1159275, “Mycalolides D and E, new cytotoxic macrolides from a collection of the stony coral Tubastrea faulkneri” (1995)

Assay: Cytotoxicity against human NCI60 cells
Assay type: functional
Details: read-out: LC50 (the source's name)

Structure (SMILES) | CC50 [nM]
CO[C@H]1C/C=C/c2nc(co2)-c2nc(co2)-c2nc(co2)[C@@H](OC)[C@@H](C)C(=O)/C=C/C[C@H](O)CC(=O)O[C@@H](C[C@H](OC)[C@@H](C)CC[C@@H](OC(=O)[C@@H](C)OC)[C@H](C)[C@H](OC(C)=O)[C@H](C)/C=C/N(C)C=O)[C@@H]1C [MYCALOLIDE C] | 2500
COCC(OC)C(=O)OC(CCC(C)C(CC1OC(=O)CC(O)C/C=C/C(=O)CC(C)C(=O)NC(=O)c2coc(n2)-c2coc(n2)/C=C/CC(OC)C1C)OC)C(C)C(OC(C)=O)C(C)/C=C/N(C)C=O (configuration not stated) [MYCALOLIDE D] | 600
